Experiment in all cases: biochemical
Test [1] has as its target T1, PIP4K2A (Homo sapiens, UniProt P48426).
T1 sequence (P48426 1-406): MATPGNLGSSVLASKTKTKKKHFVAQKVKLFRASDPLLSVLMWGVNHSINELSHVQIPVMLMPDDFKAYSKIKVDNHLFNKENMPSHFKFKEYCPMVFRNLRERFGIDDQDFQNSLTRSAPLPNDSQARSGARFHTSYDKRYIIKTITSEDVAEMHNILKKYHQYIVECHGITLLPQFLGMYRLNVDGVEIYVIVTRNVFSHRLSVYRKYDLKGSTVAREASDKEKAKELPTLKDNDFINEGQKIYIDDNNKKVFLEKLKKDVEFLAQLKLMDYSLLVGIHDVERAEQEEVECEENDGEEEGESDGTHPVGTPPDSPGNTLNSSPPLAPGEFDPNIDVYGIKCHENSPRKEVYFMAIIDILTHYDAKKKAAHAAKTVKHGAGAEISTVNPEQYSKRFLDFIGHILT

Test [2] has as its target T2, MAP3K6 (Homo sapiens, UniProt O95382).
T2 sequence (O95382 1-1288): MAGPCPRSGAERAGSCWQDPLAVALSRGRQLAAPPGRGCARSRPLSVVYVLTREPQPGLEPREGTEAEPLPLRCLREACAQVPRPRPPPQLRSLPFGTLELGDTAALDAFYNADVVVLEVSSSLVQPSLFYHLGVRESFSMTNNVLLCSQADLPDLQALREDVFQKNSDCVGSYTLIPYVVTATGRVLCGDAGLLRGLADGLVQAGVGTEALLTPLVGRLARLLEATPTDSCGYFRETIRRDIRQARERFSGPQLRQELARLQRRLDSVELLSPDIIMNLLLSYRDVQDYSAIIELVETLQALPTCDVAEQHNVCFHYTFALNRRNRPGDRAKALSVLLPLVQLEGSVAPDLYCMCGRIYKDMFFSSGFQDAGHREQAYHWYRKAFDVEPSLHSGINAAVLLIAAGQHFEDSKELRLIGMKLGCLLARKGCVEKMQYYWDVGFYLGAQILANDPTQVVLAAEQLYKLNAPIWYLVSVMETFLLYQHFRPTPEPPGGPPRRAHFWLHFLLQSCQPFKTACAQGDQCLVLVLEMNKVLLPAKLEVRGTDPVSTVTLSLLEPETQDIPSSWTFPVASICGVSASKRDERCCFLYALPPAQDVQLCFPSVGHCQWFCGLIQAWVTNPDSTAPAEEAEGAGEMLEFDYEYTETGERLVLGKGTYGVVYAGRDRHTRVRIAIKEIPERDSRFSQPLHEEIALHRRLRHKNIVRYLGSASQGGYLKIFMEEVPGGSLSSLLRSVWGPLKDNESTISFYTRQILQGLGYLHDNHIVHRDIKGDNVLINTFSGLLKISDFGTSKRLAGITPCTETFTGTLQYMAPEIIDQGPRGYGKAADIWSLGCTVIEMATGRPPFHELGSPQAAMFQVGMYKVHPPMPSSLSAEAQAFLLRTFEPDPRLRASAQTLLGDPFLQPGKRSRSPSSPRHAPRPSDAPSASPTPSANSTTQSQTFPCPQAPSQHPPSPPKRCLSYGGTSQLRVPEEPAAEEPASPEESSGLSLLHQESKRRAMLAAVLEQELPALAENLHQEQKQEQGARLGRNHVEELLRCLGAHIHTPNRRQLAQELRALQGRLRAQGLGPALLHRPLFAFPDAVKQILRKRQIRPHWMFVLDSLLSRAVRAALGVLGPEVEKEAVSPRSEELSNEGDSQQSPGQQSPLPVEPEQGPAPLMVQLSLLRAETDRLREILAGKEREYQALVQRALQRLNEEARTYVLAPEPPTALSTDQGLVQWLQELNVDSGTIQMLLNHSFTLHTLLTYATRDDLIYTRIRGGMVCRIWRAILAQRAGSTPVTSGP

The target of test [3] is FYN (Homo sapiens, UniProt P06241).
Chain of FYN (P06241 whole entry): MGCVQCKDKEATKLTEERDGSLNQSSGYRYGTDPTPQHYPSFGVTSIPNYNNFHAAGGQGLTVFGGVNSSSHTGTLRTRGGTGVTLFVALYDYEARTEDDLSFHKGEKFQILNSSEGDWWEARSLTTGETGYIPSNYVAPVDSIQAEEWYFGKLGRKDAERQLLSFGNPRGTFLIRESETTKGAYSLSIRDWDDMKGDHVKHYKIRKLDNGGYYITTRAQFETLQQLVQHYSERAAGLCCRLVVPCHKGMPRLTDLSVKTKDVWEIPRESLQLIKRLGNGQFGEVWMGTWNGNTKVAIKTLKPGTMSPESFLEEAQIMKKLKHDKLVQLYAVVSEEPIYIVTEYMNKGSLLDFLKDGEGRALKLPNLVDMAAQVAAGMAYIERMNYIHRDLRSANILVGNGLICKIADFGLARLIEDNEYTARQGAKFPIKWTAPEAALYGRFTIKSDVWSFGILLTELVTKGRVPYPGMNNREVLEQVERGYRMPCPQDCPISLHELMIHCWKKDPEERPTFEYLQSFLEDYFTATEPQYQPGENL
Test [4] addresses NTRK1 (Homo sapiens, UniProt P04629).
Test [5] has as its target MARK3 (Homo sapiens, UniProt P27448).
The target in test [6] is T3, EPHB6 (Homo sapiens, UniProt O15197).
T3 sequence (O15197 1-1021): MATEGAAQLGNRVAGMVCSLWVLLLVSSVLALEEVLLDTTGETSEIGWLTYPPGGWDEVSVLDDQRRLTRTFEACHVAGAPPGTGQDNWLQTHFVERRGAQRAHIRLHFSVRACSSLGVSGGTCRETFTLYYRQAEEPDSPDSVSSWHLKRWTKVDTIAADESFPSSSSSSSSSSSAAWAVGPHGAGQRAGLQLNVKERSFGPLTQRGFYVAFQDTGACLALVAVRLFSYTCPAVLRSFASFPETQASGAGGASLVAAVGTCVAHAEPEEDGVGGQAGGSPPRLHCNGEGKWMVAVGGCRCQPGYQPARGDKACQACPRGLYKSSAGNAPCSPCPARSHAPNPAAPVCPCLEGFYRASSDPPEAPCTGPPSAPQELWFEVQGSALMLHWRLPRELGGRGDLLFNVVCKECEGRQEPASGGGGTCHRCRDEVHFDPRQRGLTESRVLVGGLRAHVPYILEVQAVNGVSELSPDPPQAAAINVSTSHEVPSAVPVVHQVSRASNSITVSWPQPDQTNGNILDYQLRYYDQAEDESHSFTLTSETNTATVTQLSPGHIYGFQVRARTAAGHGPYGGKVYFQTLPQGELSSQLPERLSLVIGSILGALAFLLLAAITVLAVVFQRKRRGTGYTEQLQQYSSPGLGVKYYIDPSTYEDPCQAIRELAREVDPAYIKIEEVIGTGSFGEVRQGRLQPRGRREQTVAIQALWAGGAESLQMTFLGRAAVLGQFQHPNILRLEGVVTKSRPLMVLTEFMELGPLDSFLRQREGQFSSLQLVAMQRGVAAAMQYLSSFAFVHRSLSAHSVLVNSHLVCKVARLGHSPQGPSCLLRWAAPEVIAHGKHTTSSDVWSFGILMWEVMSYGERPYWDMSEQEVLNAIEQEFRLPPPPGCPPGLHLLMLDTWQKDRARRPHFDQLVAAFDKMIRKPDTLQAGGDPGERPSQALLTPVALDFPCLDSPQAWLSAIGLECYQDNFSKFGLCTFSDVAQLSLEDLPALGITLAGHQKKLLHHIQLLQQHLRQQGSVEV

Test [7] addresses MAP2K1 (Homo sapiens, UniProt Q02750).
Test [8] addresses PIM1 (Homo sapiens, UniProt P11309).

From PMC4774911, “Biochemical Screening of Five Protein Kinases from Plasmodium falciparum against 14,000 Cell-Active Compounds” (PLoS ONE, 2016) come the findings set out here.

Structures are written as SMILES. Values joined by “and” are separate entries in the source; they are usually repeats but may differ in a detail not shown here. Identical values can stand only once. Bounds are passed on as bounds.

Chain of NTRK1 (P04629 whole entry): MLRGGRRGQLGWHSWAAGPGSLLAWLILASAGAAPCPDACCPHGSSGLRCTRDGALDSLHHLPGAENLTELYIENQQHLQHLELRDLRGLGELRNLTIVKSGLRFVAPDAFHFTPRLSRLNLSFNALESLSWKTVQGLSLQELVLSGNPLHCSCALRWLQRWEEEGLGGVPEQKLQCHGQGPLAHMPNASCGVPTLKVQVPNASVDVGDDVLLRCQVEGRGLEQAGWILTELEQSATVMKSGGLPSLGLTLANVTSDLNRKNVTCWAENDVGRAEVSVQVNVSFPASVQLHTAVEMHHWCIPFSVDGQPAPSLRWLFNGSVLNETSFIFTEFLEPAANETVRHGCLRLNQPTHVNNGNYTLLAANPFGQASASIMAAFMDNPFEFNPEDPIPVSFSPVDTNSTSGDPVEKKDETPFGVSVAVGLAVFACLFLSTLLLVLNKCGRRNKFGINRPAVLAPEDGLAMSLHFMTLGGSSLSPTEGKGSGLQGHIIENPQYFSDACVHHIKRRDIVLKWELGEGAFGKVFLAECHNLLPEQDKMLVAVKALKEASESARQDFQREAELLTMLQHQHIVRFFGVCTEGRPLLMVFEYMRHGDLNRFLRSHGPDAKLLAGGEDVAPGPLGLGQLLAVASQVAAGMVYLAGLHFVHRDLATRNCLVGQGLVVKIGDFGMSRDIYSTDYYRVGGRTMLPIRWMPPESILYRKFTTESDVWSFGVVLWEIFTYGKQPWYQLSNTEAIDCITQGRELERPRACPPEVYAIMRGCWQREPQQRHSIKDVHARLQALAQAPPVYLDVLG
Chain of MAP2K1 (Q02750 whole entry): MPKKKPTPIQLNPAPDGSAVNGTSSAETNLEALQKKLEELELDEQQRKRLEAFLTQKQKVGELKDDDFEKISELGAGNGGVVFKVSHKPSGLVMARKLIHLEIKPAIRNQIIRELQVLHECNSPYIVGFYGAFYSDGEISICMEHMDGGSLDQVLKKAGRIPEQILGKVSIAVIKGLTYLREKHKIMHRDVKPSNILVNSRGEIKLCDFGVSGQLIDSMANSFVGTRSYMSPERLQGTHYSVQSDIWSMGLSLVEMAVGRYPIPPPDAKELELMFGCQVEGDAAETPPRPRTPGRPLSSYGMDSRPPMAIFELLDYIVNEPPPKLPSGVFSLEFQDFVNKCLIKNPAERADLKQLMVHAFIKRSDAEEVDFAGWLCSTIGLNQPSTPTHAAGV
Chain of MARK3 (P27448 whole entry): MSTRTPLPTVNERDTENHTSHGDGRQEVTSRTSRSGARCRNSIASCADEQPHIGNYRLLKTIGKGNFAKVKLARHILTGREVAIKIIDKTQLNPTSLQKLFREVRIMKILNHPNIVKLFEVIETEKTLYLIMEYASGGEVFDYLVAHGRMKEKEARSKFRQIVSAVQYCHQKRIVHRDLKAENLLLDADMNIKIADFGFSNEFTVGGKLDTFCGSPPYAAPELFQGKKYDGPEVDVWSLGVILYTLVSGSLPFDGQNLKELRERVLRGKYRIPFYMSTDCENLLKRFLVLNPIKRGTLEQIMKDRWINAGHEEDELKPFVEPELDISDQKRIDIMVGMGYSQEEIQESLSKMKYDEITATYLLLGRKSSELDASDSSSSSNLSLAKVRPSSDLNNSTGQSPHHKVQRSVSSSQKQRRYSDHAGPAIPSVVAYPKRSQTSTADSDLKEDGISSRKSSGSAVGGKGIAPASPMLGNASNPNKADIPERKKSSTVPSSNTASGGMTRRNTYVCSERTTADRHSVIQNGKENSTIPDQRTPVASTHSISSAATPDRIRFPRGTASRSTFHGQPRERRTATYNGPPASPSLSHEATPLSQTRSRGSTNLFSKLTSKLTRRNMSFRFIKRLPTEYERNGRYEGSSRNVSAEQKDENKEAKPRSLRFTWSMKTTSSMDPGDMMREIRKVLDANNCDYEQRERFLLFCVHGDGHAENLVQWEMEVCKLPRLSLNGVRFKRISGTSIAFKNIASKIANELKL
Chain of PIM1 (P11309 whole entry): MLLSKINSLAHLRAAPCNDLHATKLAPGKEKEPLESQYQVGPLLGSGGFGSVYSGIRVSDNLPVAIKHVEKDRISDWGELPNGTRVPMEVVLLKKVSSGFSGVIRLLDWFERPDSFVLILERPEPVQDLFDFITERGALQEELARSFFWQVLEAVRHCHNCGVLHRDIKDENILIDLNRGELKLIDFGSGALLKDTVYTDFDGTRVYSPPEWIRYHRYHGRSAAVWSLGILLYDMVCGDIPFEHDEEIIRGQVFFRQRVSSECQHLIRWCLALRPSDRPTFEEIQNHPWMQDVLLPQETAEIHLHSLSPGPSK

Broadly, the IC50 is the concentration that inhibits the measured activity by half. Consider `CN1CCN(c2ccc(Nc3ncc(C#N)c(Nc4ccccc4C(N)=O)n3)cc2)CC1.Cl` [TCMDC-134116], for which the half-maximal inhibitory concentration (IC50) in test [1] was 1100 nM and 1400 nM; in test [2], 1600 nM and 1400 nM; in test [3] it was 300 nM and 240 nM; in test [4] it was 2200 nM and 1500 nM; in test [5] it was 120 nM and 140 nM; in test [6] it was more than 20000 nM. The 50% inhibitory concentration (IC50) was 1800 nM and 1600 nM in test [7]; 7200 nM and 6000 nM in test [8].
Regarding `Cl.NCC1(c2nc(-c3ccc(Cl)c(O)c3)c(-c3ccncc3)[nH]2)CCCCC1` [TCMDC-141154], the IC50 in test [1] was more than 20000 nM; in test [2] it was more than 20000 nM; in test [3], 190 nM and 170 nM; in test [4], more than 20000 nM; in test [5], more than 20000 nM; in test [6] it was more than 20000 nM. Moreover, the concentration for half-maximal inhibition (IC50) in test [7] was 9700 nM and > 20000 nM; in test [8], more than 20000 nM.
`CN(C)CC(O)COc1ccc(Nc2ncc([N+](=O)[O-])c(Nc3ccccc3O)n2)cc1.O=C(O)C(F)(F)F` (stereo not drawn) [TCMDC-141399]: the 50% inhibitory concentration (IC50) in test [1] is 1200 nM and 950 nM; in test [2], more than 20000 nM; in test [3], more than 20000 nM; in test [4] it was more than 20000 nM; in test [5], 10000 nM and 6600 nM; in test [6], more than 20000 nM. Further, the IC50 in test [7] and in test [8] was more than 20000 nM each time.
